Results taken from PubChem BioAssay AID1963434 (Molecular Pharmacology Branch, DTP, NCI, 2024).
Several values for one entry are separate records, joined by “and”; a condition that tells them apart may be missing. Identical values can stand only once. One block for each compound: values may come before it.

Test system: 755483-174-R-J1-PDC complex spheroid growth, percent test/control
Assay: Anticancer human tumor 755483-174-R-J1-PDC patient-derived rhabdomyosarcoma cell line growth inhibition [Asc]
Details: for viability, T/C: stronger effect = lower value
Procedure, shortened: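 Concentration series start at each agent's clinical Cmax, or at 10 microM when none is established, and drop in half-log steps; agents are applied alone or together to complex spheroids built with HUVEC and hMSC.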

[1] = curve of first compound, second compound 0.1 µM
[2] = curve of first compound, second compound 0.316 µM
[3] = curve of first compound, second compound 1 µM
[4] = curve of first compound, second compound 3.16 µM
[5] = curve of first compound, second compound 10 µM
[6] = second compound 0.1 µM, first compound 0.0316 µM
[7] = second compound 0.1 µM, first compound 0.1 µM
[8] = second compound 0.1 µM, first compound 0.316 µM
[9] = second compound 0.1 µM, first compound 1 µM
[10] = second compound 0.316 µM, first compound 0.0316 µM
[11] = second compound 0.316 µM, first compound 0.1 µM
[12] = second compound 0.316 µM, first compound 0.316 µM
[13] = second compound 0.316 µM, first compound 1 µM
[14] = second compound 1 µM, first compound 0.0316 µM
[15] = second compound 1 µM, first compound 0.1 µM
[16] = second compound 1 µM, first compound 0.316 µM
[17] = second compound 1 µM, first compound 1 µM
[18] = second compound 3.16 µM, first compound 0.0316 µM
[19] = second compound 3.16 µM, first compound 0.1 µM
[20] = second compound 3.16 µM, first compound 0.316 µM
[21] = second compound 3.16 µM, first compound 1 µM
[22] = second compound 10 µM, first compound 0.0316 µM
[23] = second compound 10 µM, first compound 0.1 µM
[24] = second compound 10 µM, first compound 0.316 µM
[25] = second compound 10 µM, first compound 1 µM
[26] = second compound 0.1 µM, first compound 0.00316 µM
[27] = second compound 0.1 µM, first compound 0.01 µM
[28] = second compound 0.316 µM, first compound 0.00316 µM
[29] = second compound 0.316 µM, first compound 0.01 µM
[30] = second compound 1 µM, first compound 0.00316 µM
[31] = second compound 1 µM, first compound 0.01 µM
[32] = second compound 3.16 µM, first compound 0.00316 µM
[33] = second compound 3.16 µM, first compound 0.01 µM
[34] = second compound 10 µM, first compound 0.00316 µM
[35] = second compound 10 µM, first compound 0.01 µM
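Note: spheroids exposed to compounds for seven days before readout.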

SMILES: C=CC(=O)N1CCN(c2nc(=O)n(-c3c(C)ccnc3C(C)C)c3nc(-c4c(O)cccc4F)c(F)cc23)C(C)C1 (configuration not stated) + Cc1c(S(C)(=O)=O)c(-c2cc(F)cc(N3CCN(c4ccc(NS(=O)(=O)c5ccc(NC(CCN6CCC(C(=O)OCCCP(=O)(O)O)CC6)CSc6ccccc6)c(S(=O)(=O)C(F)(F)F)c5)cc4)CC3)c2)c(-c2ccc(Cl)cc2)n1C(C)C
- IC50 [1]: > 10000 nM
- IC50 [2]: 5510 nM
- IC50 [3]: < 31.6 nM
- IC50 [4]: > 10000 nM
- IC50 [5]: < 31.6 nM
- viability, T/C [6]: 79.5%
- viability, T/C [7]: 46.7%
- viability, T/C [8]: 58.4%
- viability, T/C [9]: 72.9%
- viability, T/C (second compound 0.1 µM, first compound 3.16 µM): 62.3%
- viability, T/C (second compound 0.1 µM, first compound 10 µM): 56.2%
- viability, T/C [10]: 45.4%
- viability, T/C [11]: 64.7%
- viability, T/C [12]: 44.5%
- viability, T/C [13]: 57.1%
- viability, T/C (second compound 0.316 µM, first compound 3.16 µM): 53.2%
- viability, T/C (second compound 0.316 µM, first compound 10 µM): 46.9%
- viability, T/C [14]: 47.2%
- viability, T/C [15]: 47.4%
- viability, T/C [16]: 54.8%
- viability, T/C [17]: 49%
- viability, T/C (second compound 1 µM, first compound 3.16 µM): 49.3%
- viability, T/C (second compound 1 µM, first compound 10 µM): 37.7%
- viability, T/C [18]: 52.4%
- viability, T/C [19]: 46%
- viability, T/C [20]: 51.9%
- viability, T/C [21]: 63.2%
- viability, T/C (second compound 3.16 µM, first compound 3.16 µM): 48.3%
- viability, T/C (second compound 3.16 µM, first compound 10 µM): 48.8%
- viability, T/C [22]: 35%
- viability, T/C [23]: 34.6%
- viability, T/C [24]: 50.2%
- viability, T/C [25]: 42.6%
- viability, T/C (second compound 10 µM, first compound 3.16 µM): 32.8%
- viability, T/C (second compound 10 µM, first compound 10 µM): 42.7%

SMILES: CCN1CCN(Cc2ccc(Nc3ncc(F)c(-c4cc(F)c5nc(C)n(C(C)C)c5c4)n3)nc2)CC1 + Cc1c(S(C)(=O)=O)c(-c2cc(F)cc(N3CCN(c4ccc(NS(=O)(=O)c5ccc(NC(CCN6CCC(C(=O)OCCCP(=O)(O)O)CC6)CSc6ccccc6)c(S(=O)(=O)C(F)(F)F)c5)cc4)CC3)c2)c(-c2ccc(Cl)cc2)n1C(C)C
- IC50 [1]: > 1000 nM
- IC50 [2]: < 3.16 nM
- IC50 [3]: < 3.16 nM
- IC50 [4]: < 3.16 nM
- IC50 [5]: < 3.16 nM
- viability, T/C [26]: 43%
- viability, T/C [27]: 62.1%
- viability, T/C [6]: 59.5%
- viability, T/C [7]: 68.5%
- viability, T/C [8]: 103%
- viability, T/C [9]: 104%
- viability, T/C [28]: 41%
- viability, T/C [29]: 48%
- viability, T/C [10]: 57.9%
- viability, T/C [11]: 59.3%
- viability, T/C [12]: 69%
- viability, T/C [13]: 81.7%
- viability, T/C [30]: 33.3%
- viability, T/C [31]: 45.3%
- viability, T/C [14]: 37.3%
- viability, T/C [15]: 50.2%
- viability, T/C [16]: 49.5%
- viability, T/C [17]: 49.7%
- viability, T/C [32]: 31.3%
- viability, T/C [33]: 66%
- viability, T/C [18]: 36.6%
- viability, T/C [19]: 45.4%
- viability, T/C [20]: 40.9%
- viability, T/C [21]: 58.5%
- viability, T/C [34]: 52.8%
- viability, T/C [35]: 41.9%
- viability, T/C [22]: 55%
- viability, T/C [23]: 54.4%
- viability, T/C [24]: 66.9%
- viability, T/C [25]: 70.9%

SMILES: NC(=O)C(=Cn1cnc(-c2cc(C(F)(F)F)cc(C(F)(F)F)c2)n1)c1cncnc1
- viability, T/C (compound 0.000949 µM): 83.4% and 72.6% and 109%
- viability, T/C (compound 0.003 µM): 79.3% and 74.5% and 76.7%
- viability, T/C (compound 0.00949 µM): 31.9% and 25.1% and 35.4%
- viability, T/C (compound 0.03 µM): 12.6% and 12.7% and 19.2%
- viability, T/C (compound 0.0949 µM): 8.9% and 7.51% and 9.5%
- viability, T/C (compound 0.3 µM): 9.16% and 4.1% and 26.1%
- IC50 (curve of compound): 6.11 nM and 5.25 nM and 6.23 nM

Second part, led by results:

- IC50 [1]: < 3.16 nM
- IC50 [2]: < 3.16 nM
- IC50 [3]: < 3.16 nM
- IC50 [4]: < 3.16 nM
- IC50 [5]: < 3.16 nM
SMILES: COc1c(OCCCN2CCOCC2)ccc2c3n(c(=NC(=O)c4cnc(N)nc4)nc12)CCN3 + Cc1c(S(C)(=O)=O)c(-c2cc(F)cc(N3CCN(c4ccc(NS(=O)(=O)c5ccc(NC(CCN6CCC(C(=O)OCCCP(=O)(O)O)CC6)CSc6ccccc6)c(S(=O)(=O)C(F)(F)F)c5)cc4)CC3)c2)c(-c2ccc(Cl)cc2)n1C(C)C
- viability, T/C [26]: 39.6%
- viability, T/C [27]: 48%
- viability, T/C [6]: 33.2%
- viability, T/C [7]: 15.8%
- viability, T/C [8]: 6.56%
- viability, T/C [9]: 4%
- viability, T/C [28]: 32.8%
- viability, T/C [29]: 28.1%
- viability, T/C [10]: 31.9%
- viability, T/C [11]: 13%
- viability, T/C [12]: 5.57%
- viability, T/C [13]: 2.62%
- viability, T/C [30]: 34.3%
- viability, T/C [31]: 31.4%
- viability, T/C [14]: 18.6%
- viability, T/C [15]: 17.4%
- viability, T/C [16]: 5.22%
- viability, T/C [17]: 2.16%
- viability, T/C [32]: 26.5%
- viability, T/C [33]: 29.1%
- viability, T/C [18]: 20.2%
- viability, T/C [19]: 8.47%
- viability, T/C [20]: 5.03%
- viability, T/C [21]: 1.66%
- viability, T/C [34]: 40.9%
- viability, T/C [35]: 25.5%
- viability, T/C [22]: 19.1%
- viability, T/C [23]: 12.1%
- viability, T/C [24]: 4.21%
- viability, T/C [25]: 1.7%

- IC50 [1]: < 0.316 nM
- IC50 [2]: < 0.316 nM
- IC50 [3]: < 0.316 nM
- IC50 [4]: < 0.316 nM
- IC50 [5]: < 0.316 nM
SMILES: NC1CCC(NC2CC2c2ccccc2)CC1 (configuration not stated) + Cc1c(S(C)(=O)=O)c(-c2cc(F)cc(N3CCN(c4ccc(NS(=O)(=O)c5ccc(NC(CCN6CCC(C(=O)OCCCP(=O)(O)O)CC6)CSc6ccccc6)c(S(=O)(=O)C(F)(F)F)c5)cc4)CC3)c2)c(-c2ccc(Cl)cc2)n1C(C)C
- viability, T/C (second compound 0.1 µM, first compound 0.000316 µM): 36.7%
- viability, T/C (second compound 0.1 µM, first compound 0.001 µM): 31.1%
- viability, T/C [26]: 37.3%
- viability, T/C [27]: 37.3%
- viability, T/C [6]: 33.7%
- viability, T/C [7]: 37%
- viability, T/C (second compound 0.316 µM, first compound 0.000316 µM): 39.7%
- viability, T/C (second compound 0.316 µM, first compound 0.001 µM): 42.1%
- viability, T/C [28]: 31.7%
- viability, T/C [29]: 26.7%
- viability, T/C [10]: 35.9%
- viability, T/C [11]: 30.5%
- viability, T/C (second compound 1 µM, first compound 0.000316 µM): 27.6%
- viability, T/C (second compound 1 µM, first compound 0.001 µM): 19.3%
- viability, T/C [30]: 31.9%
- viability, T/C [31]: 31.5%
- viability, T/C [14]: 31.1%
- viability, T/C [15]: 39.5%
- viability, T/C (second compound 3.16 µM, first compound 0.000316 µM): 25.2%
- viability, T/C (second compound 3.16 µM, first compound 0.001 µM): 32.8%
- viability, T/C [32]: 22.7%
- viability, T/C [33]: 35.9%
- viability, T/C [18]: 24.9%
- viability, T/C [19]: 35.4%
- viability, T/C (second compound 10 µM, first compound 0.000316 µM): 20.4%
- viability, T/C (second compound 10 µM, first compound 0.001 µM): 20.4%
- viability, T/C [34]: 21.2%
- viability, T/C [35]: 20.6%
- viability, T/C [22]: 24.5%
- viability, T/C [23]: 27.6%
